From ChEMBL document CHEMBL5236632, “Membrane-Active Nonivamide Derivatives as Effective Broad-Spectrum Antimicrobials: Rational Design, Synthesis, and Biological Evaluation” (J Med Chem, 2022) come the findings set out here.

Molecules are shown by their SMILES.

Series [1] can be described thus: Selectivity ratio, HC50 for hemolytic activity in rabbit RBC to MIC for antibacterial activity against Klebsiella pneumoniae ATCC 14581. The format is toxicity. The conditions noted are these: rabbit red blood cells.
In series [2] the test system is Staphylococcus aureus. Nature of the series: Inhibition of biofilm formation Staphylococcus aureus ATCC 29213 assessed as decrease in biofilm formation at 0.39 ug/ml measured after 24 hrs by crystal violet staining assay. The format is functional.
Series [3] has as its system Staphylococcus aureus. Nature of the series: Antibacterial activity against Staphylococcus aureus ATCC 29213 assessed as inhibition of visible growth measured after 18 to 24 hrs in presence of 100 ug/ml Ca2+ by broth dilution method. The format is functional. To be noted: time 18-24 hrs. (In broth dilution the organism is exposed to a series of concentrations in liquid medium.)

Series [4] concerns Staphylococcus aureus. Nature of the series: Antibacterial activity against methicillin-resistant Staphylococcus aureus NCTC 10442 assessed as inhibition of visible growth measured after 18 to 24 hrs in presence of 3220 ug/ml Na+ by broth dilution method. The conditions noted are these: time 18-24 hrs. Format: functional.
The subject of series [5] is Escherichia coli. Nature of the series: Inhibition of biofilm formation Escherichia coli ATCC 25922 assessed as decrease in biofilm formation at 6.25 ug/ml measured after 24 hrs by crystal violet staining assay. The format is functional.
Series [6] is described as follows: Selectivity ratio, HC50 for hemolytic activity in rabbit RBC to MIC for antibacterial activity against Klebsiella pneumoniae ATCC 10031. To be noted: rabbit red blood cells. Format: toxicity.
The test system of series [7] is Staphylococcus aureus. Nature of the series: Displacement of BODIPY-TR-cadaverin from Staphylococcus aureus lipoteichoic acid at MIC concentration incubated for 30 mins by fluorescence based analysis.
In series [8] the test system is Escherichia coli. Nature of the series: Antibacterial activity against Escherichia coli […] assessed as inhibition of visible growth measured after 18 to 24 hrs in presence of 175.5 ug/ml K+ by broth dilution method. The conditions noted are these: time 18-24 hrs. The format is functional.
The test system of series [9] is Escherichia coli. The experiment in a line: Antibacterial activity against Escherichia coli […] assessed as inhibition of visible growth measured after 18 to 24 hrs in presence of 24.3 ug/ml Mg2+ by broth dilution method. The format is functional. The conditions noted are these: time 18-24 hrs.

As usually defined, the inhibition is the drop in the measured response relative to a control, in per cent. A word on the MIC: it is the least concentration at which growth counts as inhibited. Turning to `CCCCCCCCC(=O)NCc1ccc(OCCCCCCNC(=N)N)c(OCCCCCCNC(=N)N)c1`, the selectivity ratio in series [1] and in [6] was 21.6 each time. For the same compound, the inhibition at 0.39 µg/mL with Staphylococcus aureus [2] was 97.8%. In addition, the MIC with Staphylococcus aureus [3] was 0.39 µg/mL; in the series on Staphylococcus aureus [4] it was 0.39 µg/mL; in the series on Escherichia coli [8] it was 1.56 µg/mL; in the series with Escherichia coli [9] it was 1.56 µg/mL. The inhibition at 6.25 µg/mL in the series on Escherichia coli [5] turned out to be 109%. The compound further showed an Activity in the series on Staphylococcus aureus [7] of 10.2%.
